Data set [1] has as its system human neuroblastoma SK-N-MC cells. Nature of the data set: Protection against neuronal death induced by okadaic acid (inhibition of protein phosphatase-1), WST-1. The data set is classed as cell-based. The conditions noted are these: NST0060 at 10 μM; 20 nM OA, 22 hours; significant with 4 and 10 μM. The protocol:
The assay was performed on human neuroblastoma SK-N-MC cells in culture, maintained as described in section 2.1.
The inhibition caused by compound NST0060 with respect to cell death caused by treatment with okadaic acid (OA) which inhibits the activity of protein phosphatase-1 (PP1) was analyzed. OA is one of the most widely used drugs for studying the phosphorylation mechanism of the tau protein, involved in the pathogenesis and progression of AD. Inhibition of PP1 causes cytoskeleton alterations and mitochondrial damage. These cells, not exceeding 15 passages, were seeded on 96-well plates treated for adherent cells with a cell concentration of 5×10^4 cells/well; 3 wells of the plate were seeded for each assay condition.
After 24 hours of cell incubation (at 37° C. and 5% CO2), the cell treatments were performed with 100 μl of total volume for the following conditions: • Control: culture medium (medium) • Okadaic acid (OA): medium plus 20 nM OA, causing death of 50% of the cells. • OA plus NST0060: medium plus OA (20 nM) plus NST0060 at 1, 4, 10, 40 or 100 μM.
The cells were incubated (at 37° C. and 5% CO2) with these treatments for 22 hours, after which time WST-1 reagent (Roche) was added. The WST-1 test is based on the measurement of metabolic activity (method described in section 2.1).
For orientation: Tetrazolium assays rely on reduction of a dye to a coloured formazan, in cell work by metabolically active cells.

The subject of data set [2] is human hepatocarcinoma line HepG2. The data set can be described thus: Intracellular total cholesterol levels in human hepatic cell line. The data set is classed as cell-based. The following applies: HepG2, active form, 20 hours in the absence of FBS. As to the method: To that end an assay was conducted which had the purpose of determining if compound NST0060 in its active form was capable of modifying total cholesterol levels in the human hepatocarcinoma line HepG2. […] To carry out this assay, the compounds were prepared at 10 mM in ultrapure water and were activated by means of 0.1 N NaOH for 12 hours at 4° C. The compounds were stored at −20° C. until they were used.
The HepG2 line was obtained from the American Type Culture Collection (ATCC). The cells maintained in passage were seeded in 96-well plates (4×10^4 cells/well) in MEM supplemented with 10% FBS, 2 mM L-glutamine, 1 mM sodium pyruvate, 0.1 mM non-essential amino acids and 0.05 mg/mL gentamicin. After 24 hours of the seeding, the cells were deprived of FBS for 8 hours. The cells were then incubated with the treatments at various concentrations for 20 hours. After the incubation period, the cells were washed with PBS and lysed with a phosphate buffer with 0.5% Triton X-100. The lysis was completed by means of a double freezing-thawing.
The total cholesterol was quantified by means of enzymatic and fluorometric techniques. […] The fluorescence intensity was determined at 530 nm of excitation and 580 nm of emission by means of a fluorometer. The results were standardized by amount of protein, which was determined by means of the BCA technique.

In data set [3] the test system is male C57BL6 mice. Nature of the data set: LPS model of systemic shock in mice, survival and symptomatology score. The conditions noted are these: LPS 8 mg/kg i.p. It counts as in vivo. The protocol:
(§1) To that end an additional assay was carried out in which all the animals included were 12-week old male C57BL6 mice. The experiments were carried out strictly complying with the standard entitled Guidance on the Operation of Animals (Scientific Procedures, Act. 1986). The animals were subjected to their respective quarantine period and were treated with maximum precaution to minimize possible contaminations during treatments and handling.
(§2) The mice were split up into three experimental groups: control group (n=8); control+LPS group (n=16); NST0060+LPS group (n=16). The mice were i.p. administered two doses of 50 mg/kg of NST0060 (in its lactone form) spaced out 12 hours from one another. 0.5% methyl cellulose in physiological saline, which was administered to the mice in the control groups with the same administration regimen, was used as a vehicle. Peripheral systemic inflammation was induced one hour after the last treatment by means of a single i.p. injection of LPS at 8 mg/kg. Half the mice in which systemic shock was induced (8 animals from the control+LPS group and 8 animals from the NST0060+LPS group) were sacrificed 2 hours after the inoculation of the LPS. Blood was taken and plasma was obtained, and both were frozen. […] The concentration of the inflammatory cytokines TNFα and IL-1β was evaluated in the plasma obtained by means of ELISA.

In data set [4] the test system is IL-1β. The data set can be described thus: LPS model of systemic shock in mice, plasma IL-1β. The conditions noted are these: two i.p. doses of 50 mg/kg; 2 hours post-LPS. The data set is classed as in vivo. The protocol:
as §1, §2

The test system of data set [5] is FVB/NHan mice. The data set can be described thus: Death caused by acute administration of kainate in mice, survival. It counts as in vivo. The conditions noted are these: 50 mg/kg i.p. at 24 and 0.5 hours before KA 25 mg/kg and daily up to 7 days; p<0.05. The protocol:
All the animals included during the experimental process were 12-week old males from the FVB/NHan strain. The experiments were carried out strictly complying with the standard entitled Guidance on the Operation of Animals (Scientific Procedures, Act. 1986). The animals were subjected to their respective quarantine period and were treated with maximum precaution to minimize possible contaminations during inoculations and handling.
The animals were intraperitoneally inoculated with 25 mg/kg of kainate (KA) dissolved in PBS. Fourteen animals were pretreated at 24 and 0.5 hours before inoculation with KA and subsequently on a daily basis up to 7 days post-inoculation by means of intraperitoneal injection with 0.25% methyl cellulose in PBS as a vehicle (vehicle+KA administration regimen) and 14 were pretreated at 24 and 0.5 hours before inoculation with KA and subsequently on a daily basis up to 7 days post-inoculation by means of intraperitoneal injection with compound NST0060 at a dose of 50 mg/kg (NST0060+KA administration regimen). After inoculation, the animals were individually housed in trays to monitor them.

Data set [6] has as its system zebrafish (Danio rerio, AB strain) embryos. The data set can be described thus: Zebrafish embryo acute toxicity, percentage of healthy larvae. The following applies: mean±SD.

For `CCCC(CCC)C(=O)O[C@H]1C[C@@H](C)C=C2C=C[C@H](C)[C@H](CC[C@@H]3C[C@@H](O)CC(=O)O3)[C@H]21` [NST0060, 2-propylpentanoic acid (1S,3R,7S,8S,8aR)-1,2,3,7,8,8a-hexahydro-3,7-dimethyl-8-[2-[(2R,4R)-tetrahydro-4-hydroxy-6-oxo-2H-pyran-2-yl]ethyl]-1-naphthalenyl ester], in data set [1], the “protection against cell death caused by OA” value was determined as 83%. Further, in data set [2], the “reduction in total cholesterol in the cells” value is listed as “reductions in total cholesterol in the cells similar to those exerted by simvastatin”. Besides, the “survival rate / mortality induced by LPS” value in data set [3] (two i.p. doses of 50 mg/kg (lactone form), observed 15 days) is on record as “mortality induced by LPS is prevented in a statistically significant manner”. The “score associated with the symptomatology (0 to 3)” value in data set [3] (two i.p. doses of 50 mg/kg, statistically significant at 24 hours) is “lower severity of the systemic shock process”. For the same molecule, the “cytokine IL-1β plasma levels” value in data set [4] was “statistically significant decrease in cytokine IL-18 plasma levels”. For the same molecule, the “mortality caused by KA” value in data set [5] was “reduces mortality observed in a statistically significant manner”. The “percentage of healthy larvae” value in data set [6] (dose of 1 mg/Kg) came to 100±0.0%; in data set [6] (dose of 3 mg/Kg), 86.7±6.2%.
